These results are taken from patent US20200172529A1, “Chemical Compound, Pharmaceutical Composition Thereof, and Use and Application Thereof” (Beijing Hanmi Pharm. Co., Ltd., priority 2017, published 2020).

The term IC50 denotes the concentration that gives 50% inhibition. Low readings indicate greater potency in that assay, high ones weaker potency in that assay.

The structures appear in SMILES notation.

Common to all, as to format: biochemical
One test concerns the target T1, TYK2 kinase (Homo sapiens, UniProt P29597).
T1 construct: purchased Life Technologies PR8440C
Put plainly: Inhibition assay of TYK2 kinase activity (ADP-Glo Kinase Assay). The method in brief: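 Enzyme at 0.8 ng/mL (2-fold final) in 40 mM Tris-HCl pH 7.5, 20 mM MgCl2, 0.1 mg/mL BSA, 1 mM DTT, preincubated 10 min with compound (6 points, 10-fold dilutions from 10 μM). ATP plus polyE4Y1 then added for 60 min at room temperature. ADP-Glo luminescence read and IC50 derived.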
In general terms: ADP-Glo turns the ADP formed in a reaction into a luminescent signal.

Another test concerns the target JAK1 kinase (Homo sapiens, UniProt P23458). Put plainly: Inhibition assay of JAK1 kinase activity (ADP-Glo Kinase Assay). An excerpt:
Inhibition assay of JAK1 kinase activity: the method in ADP-Glo™ Kinase Assay (Promega, V9102) was used to determine the inhibitory activity of the test compounds against JAK1 kinase.

A further test addresses JAK2 kinase (Homo sapiens, UniProt O60674). Kind of test: Inhibition assay of JAK2 kinase activity (ADP-Glo Kinase Assay). The source says: Inhibition assay of JAK2 kinase activity: the method in ADP-Glo™ Kinase Assay (Promega, V9102) was used to determine the inhibitory activity of the test compounds against JAK2 kinase.
The target of the next test is T2, JAK3 kinase (Homo sapiens, UniProt P52333).
T2 sequence (P52333 1-1124): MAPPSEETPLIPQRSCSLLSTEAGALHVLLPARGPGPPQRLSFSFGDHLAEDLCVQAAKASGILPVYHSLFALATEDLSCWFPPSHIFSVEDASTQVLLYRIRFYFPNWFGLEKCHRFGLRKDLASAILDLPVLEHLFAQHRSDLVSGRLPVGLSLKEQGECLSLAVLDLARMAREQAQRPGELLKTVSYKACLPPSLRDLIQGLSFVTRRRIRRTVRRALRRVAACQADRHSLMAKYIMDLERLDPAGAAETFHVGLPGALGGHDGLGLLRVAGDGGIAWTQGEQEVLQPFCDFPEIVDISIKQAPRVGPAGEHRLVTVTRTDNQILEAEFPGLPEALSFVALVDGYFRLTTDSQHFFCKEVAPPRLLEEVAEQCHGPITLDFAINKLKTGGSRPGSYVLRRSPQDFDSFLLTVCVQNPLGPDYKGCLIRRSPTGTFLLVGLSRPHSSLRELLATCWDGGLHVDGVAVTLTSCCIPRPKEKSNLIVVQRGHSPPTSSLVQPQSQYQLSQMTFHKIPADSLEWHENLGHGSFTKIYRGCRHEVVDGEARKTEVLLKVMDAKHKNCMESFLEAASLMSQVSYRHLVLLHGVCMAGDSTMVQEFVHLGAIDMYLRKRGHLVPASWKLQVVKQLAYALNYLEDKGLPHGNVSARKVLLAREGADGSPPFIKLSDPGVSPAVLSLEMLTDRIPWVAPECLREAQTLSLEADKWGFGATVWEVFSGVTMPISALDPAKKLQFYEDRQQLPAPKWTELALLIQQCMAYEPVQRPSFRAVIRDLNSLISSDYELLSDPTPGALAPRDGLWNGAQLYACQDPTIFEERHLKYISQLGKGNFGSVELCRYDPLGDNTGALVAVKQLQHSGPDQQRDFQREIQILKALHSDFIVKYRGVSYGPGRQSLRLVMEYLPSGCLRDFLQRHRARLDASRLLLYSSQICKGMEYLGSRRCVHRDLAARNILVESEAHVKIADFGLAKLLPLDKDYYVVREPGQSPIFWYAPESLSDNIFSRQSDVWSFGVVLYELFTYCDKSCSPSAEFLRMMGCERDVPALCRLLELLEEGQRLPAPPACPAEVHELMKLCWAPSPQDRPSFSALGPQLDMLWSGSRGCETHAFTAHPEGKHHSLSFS
Kind of test: Inhibition assay of JAK3 kinase activity (ADP-Glo Kinase Assay). The source says: Inhibition assay of JAK3 kinase activity: the method in ADP-Glo™ Kinase Assay (Promega, V9102) was used to determine the inhibitory activity of the test compounds against JAK3 kinase.

The target in another test is SYK kinase (Homo sapiens, UniProt P43405). Put plainly: Inhibition assay of SYK kinase activity (ADP-Glo Kinase Assay). An excerpt:
Inhibition assay of SYK kinase activity: the method in ADP-Glo™ Kinase Assay (Promega, V9102) was used to determine the inhibitory activity of the test compounds against SYK kinase.

T1 sequence (P29597 whole entry): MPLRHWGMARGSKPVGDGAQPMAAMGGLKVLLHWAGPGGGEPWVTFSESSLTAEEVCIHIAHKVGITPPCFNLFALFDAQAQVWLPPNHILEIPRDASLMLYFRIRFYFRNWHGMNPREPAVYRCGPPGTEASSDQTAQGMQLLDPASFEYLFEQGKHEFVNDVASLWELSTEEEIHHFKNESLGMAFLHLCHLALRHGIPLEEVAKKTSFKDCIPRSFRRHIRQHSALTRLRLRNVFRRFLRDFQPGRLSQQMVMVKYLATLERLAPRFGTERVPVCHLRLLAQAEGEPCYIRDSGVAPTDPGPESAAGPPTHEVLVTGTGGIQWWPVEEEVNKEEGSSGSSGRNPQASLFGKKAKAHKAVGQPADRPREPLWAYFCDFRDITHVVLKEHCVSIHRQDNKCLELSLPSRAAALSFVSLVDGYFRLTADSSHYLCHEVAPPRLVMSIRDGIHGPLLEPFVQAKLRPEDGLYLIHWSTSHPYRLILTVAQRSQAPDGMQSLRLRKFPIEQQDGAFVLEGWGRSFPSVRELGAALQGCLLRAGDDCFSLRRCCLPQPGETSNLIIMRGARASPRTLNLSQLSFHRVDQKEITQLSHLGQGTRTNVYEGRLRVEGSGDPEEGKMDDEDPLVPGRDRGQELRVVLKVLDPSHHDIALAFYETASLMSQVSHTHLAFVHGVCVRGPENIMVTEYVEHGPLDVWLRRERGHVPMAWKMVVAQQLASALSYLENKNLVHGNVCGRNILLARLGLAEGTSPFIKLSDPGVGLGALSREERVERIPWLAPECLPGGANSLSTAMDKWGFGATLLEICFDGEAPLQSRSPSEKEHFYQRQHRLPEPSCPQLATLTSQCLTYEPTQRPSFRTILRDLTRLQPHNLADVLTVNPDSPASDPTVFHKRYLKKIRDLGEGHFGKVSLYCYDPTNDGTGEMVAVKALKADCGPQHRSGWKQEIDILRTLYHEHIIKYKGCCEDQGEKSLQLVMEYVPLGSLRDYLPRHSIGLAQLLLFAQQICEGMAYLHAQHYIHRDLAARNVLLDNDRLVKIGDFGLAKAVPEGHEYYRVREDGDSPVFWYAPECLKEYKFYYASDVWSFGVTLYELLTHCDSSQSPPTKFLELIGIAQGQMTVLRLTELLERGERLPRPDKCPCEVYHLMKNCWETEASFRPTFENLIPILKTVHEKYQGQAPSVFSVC
JAK2 kinase, sequence (O60674 whole entry): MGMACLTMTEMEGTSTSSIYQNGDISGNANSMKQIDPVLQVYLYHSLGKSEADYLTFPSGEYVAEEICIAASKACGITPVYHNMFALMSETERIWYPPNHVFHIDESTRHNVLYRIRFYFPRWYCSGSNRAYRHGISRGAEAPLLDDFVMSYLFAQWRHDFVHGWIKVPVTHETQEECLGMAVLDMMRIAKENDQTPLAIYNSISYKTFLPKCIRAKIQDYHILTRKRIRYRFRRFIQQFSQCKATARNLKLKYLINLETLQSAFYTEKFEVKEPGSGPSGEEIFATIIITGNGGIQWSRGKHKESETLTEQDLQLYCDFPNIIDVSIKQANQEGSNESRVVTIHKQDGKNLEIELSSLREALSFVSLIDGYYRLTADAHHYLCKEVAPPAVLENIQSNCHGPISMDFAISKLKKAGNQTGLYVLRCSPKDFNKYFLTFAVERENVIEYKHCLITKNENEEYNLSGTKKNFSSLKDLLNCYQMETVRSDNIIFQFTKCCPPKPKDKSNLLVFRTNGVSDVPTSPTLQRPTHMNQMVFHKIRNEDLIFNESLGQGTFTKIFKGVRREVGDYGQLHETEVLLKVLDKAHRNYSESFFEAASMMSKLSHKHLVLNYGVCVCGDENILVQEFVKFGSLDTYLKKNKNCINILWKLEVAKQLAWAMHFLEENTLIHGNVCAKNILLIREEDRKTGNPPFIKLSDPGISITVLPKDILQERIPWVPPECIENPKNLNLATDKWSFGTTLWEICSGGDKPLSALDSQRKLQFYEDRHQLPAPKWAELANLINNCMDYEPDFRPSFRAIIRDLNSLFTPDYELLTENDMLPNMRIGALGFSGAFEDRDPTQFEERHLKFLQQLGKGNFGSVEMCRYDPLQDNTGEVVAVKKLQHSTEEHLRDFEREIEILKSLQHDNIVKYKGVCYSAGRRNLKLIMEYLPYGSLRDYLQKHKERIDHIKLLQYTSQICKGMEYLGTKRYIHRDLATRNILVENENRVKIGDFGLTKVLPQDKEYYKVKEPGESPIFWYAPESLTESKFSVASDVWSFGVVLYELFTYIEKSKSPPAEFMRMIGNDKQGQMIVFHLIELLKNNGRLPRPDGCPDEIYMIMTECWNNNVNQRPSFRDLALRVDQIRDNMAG
JAK1 kinase, sequence (P23458 whole entry): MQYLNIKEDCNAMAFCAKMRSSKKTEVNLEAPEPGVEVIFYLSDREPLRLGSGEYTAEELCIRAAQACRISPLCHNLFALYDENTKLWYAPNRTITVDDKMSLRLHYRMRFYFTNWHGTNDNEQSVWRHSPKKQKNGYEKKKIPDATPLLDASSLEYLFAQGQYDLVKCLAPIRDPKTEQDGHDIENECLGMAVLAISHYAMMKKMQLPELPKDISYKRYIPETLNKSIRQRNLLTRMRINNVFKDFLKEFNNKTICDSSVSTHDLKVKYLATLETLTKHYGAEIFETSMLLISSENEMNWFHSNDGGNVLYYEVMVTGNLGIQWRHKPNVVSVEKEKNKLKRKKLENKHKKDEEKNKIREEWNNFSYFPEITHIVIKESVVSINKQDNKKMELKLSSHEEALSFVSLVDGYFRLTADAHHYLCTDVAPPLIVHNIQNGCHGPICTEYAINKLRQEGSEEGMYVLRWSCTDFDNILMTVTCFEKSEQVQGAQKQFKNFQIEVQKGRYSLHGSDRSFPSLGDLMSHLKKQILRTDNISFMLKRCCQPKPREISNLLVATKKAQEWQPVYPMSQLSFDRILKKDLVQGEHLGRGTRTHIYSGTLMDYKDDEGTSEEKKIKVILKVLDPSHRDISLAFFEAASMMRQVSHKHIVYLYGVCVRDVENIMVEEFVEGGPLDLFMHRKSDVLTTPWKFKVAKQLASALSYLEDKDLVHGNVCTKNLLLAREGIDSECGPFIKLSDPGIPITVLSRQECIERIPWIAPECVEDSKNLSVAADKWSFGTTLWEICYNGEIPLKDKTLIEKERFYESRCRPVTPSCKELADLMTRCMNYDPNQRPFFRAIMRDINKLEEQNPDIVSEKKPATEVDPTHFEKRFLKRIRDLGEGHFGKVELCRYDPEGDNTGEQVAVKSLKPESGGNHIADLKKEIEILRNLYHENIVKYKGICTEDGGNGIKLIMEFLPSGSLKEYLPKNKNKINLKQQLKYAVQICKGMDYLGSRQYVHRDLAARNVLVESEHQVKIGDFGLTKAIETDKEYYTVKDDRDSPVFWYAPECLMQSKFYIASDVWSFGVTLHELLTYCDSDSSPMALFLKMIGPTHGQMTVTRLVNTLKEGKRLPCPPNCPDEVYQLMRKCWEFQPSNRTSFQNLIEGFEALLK

For the compound `COCCO[C@H]1CNc2cc(Nc3ncc(C(N)=O)c(NC4CC4)n3)ccc2OC1` [Example 78, 4-(cyclopropylamino)-2-(((S)-2,3,4,5-tetrahydro-3-methoxyethoxybenzo[b][1,4]oxazepin-7-yl)amino)pyrimidin-5-carboxamide], the concentration for half-maximal inhibition (IC50) against TYK2 kinase was under 10 nM; against JAK1 kinase, under 10 nM; against JAK2 kinase it was 10 to 100 nM; against JAK3 kinase, 10 to 100 nM; on SYK kinase, 10 to 100 nM.
On to `COCCCCO[C@H]1CNc2cc(Nc3ncc(C(N)=O)c(NC4CC4)n3)ccc2OC1` [Example 100, 4-(cyclopropylamino)-2-(((S)-2,3,4,5-tetrahydro-3-(4-methoxybutoxy)benzo[b][1,4]oxazepin-7-yl)amino)pyrimidin-5-carboxamide], for which the IC50 was under 10 nM against TYK2 kinase, under 10 nM against JAK1 kinase and 10 to 100 nM at SYK kinase.
On to `NC(=O)c1cnc(Nc2ccc3c(c2)NC[C@H](OCC2CCCCO2)CO3)nc1NC1CC1` (stereo partly drawn) [Example 99, 4-(cyclopropylamino)-2-(((S)-2,3,4,5-tetrahydro-3-(tetrahydro-2H-2-pyranylmethoxy)benzo[b][1,4]oxazepin-7-yl)amino)pyrimidin-5-carboxamide], for which the IC50 on TYK2 kinase is under 10 nM; against JAK1 kinase, under 10 nM; on SYK kinase it was 10 to 100 nM.
In the case of `CCCCCNc1nc(Nc2ccc3c(c2)NC[C@H](O)CO3)ncc1C(N)=O` [Example 75, 4-(pentylamino)-2-(((S)-2,3,4,5-tetrahydro-3-hydroxybenzo[b][1,4]oxazepin-7-yl)amino)pyrimidin-5-carboxamide], the IC50 on TYK2 kinase, on JAK1 kinase, against JAK2 kinase and against JAK3 kinase was under 10 nM throughout.
Turning to `CC(Nc1nc(Nc2ccc3c(c2)NC[C@H](O)CO3)ncc1C(N)=O)C1CC1` (stereo partly drawn) [Example 55, 4-((1-cyclopropylethyl)amino)-2-(((S)-2,3,4,5-tetrahydro-3-hydroxybenzo[b][1,4]oxazepin-7-yl)amino)pyrimidin-5-carboxamide], the IC50 against TYK2 kinase, at JAK1 kinase, at JAK2 kinase and at JAK3 kinase was under 10 nM in each case.
`NC(=O)c1cnc(Nc2ccc3c(c2)NC[C@H](OCC2CCCOC2)CO3)nc1NC1CC1` (stereo partly drawn) [Example 102, 4-(cyclopropylamino)-2-(((S)-2,3,4,5-tetrahydro-3-((tetrahydropyran-3-yl)methoxy)benzo[b][1,4]oxazepin-7-yl)amino)pyrimidin-5-carboxamide]: the half-maximal inhibitory concentration (IC50) is under 10 nM at TYK2 kinase, under 10 nM on JAK1 kinase, 10 to 100 nM against JAK2 kinase and 10 to 100 nM against JAK3 kinase.
With `NC(=O)c1cnc(Nc2ccc3c(c2)NC[C@H](O)CO3)nc1Nc1ccc2[nH]ccc2c1` [Example 34, 4-((1H-indol-5-yl)amino)-2-(((S)-2,3,4,5-tetrahydro-3-hydroxybenzo[b][1,4]oxazepin-7-yl)amino)pyrimidin-5-carboxamide], the IC50 against TYK2 kinase, against JAK1 kinase, against JAK2 kinase and on JAK3 kinase was under 10 nM in each case.
As to `CS(=O)(=O)CCNc1nc(Nc2ccc3c(c2)NC[C@H](O)CO3)ncc1C(N)=O` [Example 67, 4-((2-methanesulfonylethyl)amino)-2-(((S)-2,3,4,5-tetrahydro-3-hydroxybenzo[b][1,4]oxazepin-7-yl)amino)pyrimidin-5-carboxamide], the IC50 at TYK2 kinase is under 10 nM; against JAK1 kinase, 10 to 100 nM; against JAK2 kinase, 10 to 100 nM; against JAK3 kinase it was 10 to 100 nM.
Take `CO[C@H]1CNc2cc(Nc3ncc(C(N)=O)c(NC4C5CC6CC4CC(O)(C6)C5)n3)ccc2OC1` (stereo partly drawn) [Example 90, 4-((5-hydroxyadamantan-2-yl)amino)-2-(((S)-2,3,4,5-tetrahydro-3-methoxybenzo[b][1,4]oxazepin-7-yl)amino)pyrimidin-5-carboxamide]: the IC50 against TYK2 kinase was under 10 nM; against JAK2 kinase it was under 10 nM; against JAK3 kinase, under 10 nM; at SYK kinase, 10 to 100 nM.
On to `CCCCNc1nc(Nc2ccc3c(c2)NC[C@H](O)CO3)ncc1C(N)=O` [Example 74, 4-(butylamino)-2-(((S)-2,3,4,5-tetrahydro-3-hydroxybenzo[b][1,4]oxazepin-7-yl)amino)pyrimidin-5-carboxamide], for which the IC50 on TYK2 kinase, on JAK1 kinase, against JAK2 kinase and on JAK3 kinase was under 10 nM each time.
On to `CC(C)CNc1nc(Nc2ccc3c(c2)NC[C@H](O)CO3)ncc1C(N)=O` [Example 70, 4-(isobutylamino)-2-(((S)-2,3,4,5-tetrahydro-3-hydroxybenzo[b][1,4]oxazepin-7-yl)amino)pyrimidin-5-carboxamide], for which the IC50 at TYK2 kinase, against JAK1 kinase, at JAK2 kinase and at JAK3 kinase was under 10 nM each time.
With `NC(=O)c1cnc(Nc2ccc3c(c2)NC[C@H](O)CO3)nc1NCC1CCCC1` [Example 73, 4-((cyclopentylmethyl)amino)-2-(((S)-2,3,4,5-tetrahydro-3-hydroxybenzo[b][1,4]oxazepin-7-yl)amino)pyrimidin-5-carboxamide], the IC50 on TYK2 kinase, at JAK1 kinase, on JAK2 kinase and at JAK3 kinase was under 10 nM in each case.
For `NC(=O)c1cnc(Nc2ccc3c(c2)NCC(O)CO3)nc1NC1CCC1` (stereo not drawn) [Example 1, 4-(cyclobutylamino)-2-((3-hydroxy-2,3,4,5-tetrahydro-benzo[b][1,4]oxazepin-7-yl)amino)pyrimidin-5-carboxamide], the IC50 at TYK2 kinase is under 10 nM; at JAK1 kinase, under 10 nM; on SYK kinase, 10 to 100 nM.
For `CO[C@H]1CNc2cc(Nc3ncc(C(N)=O)c(NC4C5CC6CC4CC(OC)(C6)C5)n3)ccc2OC1` (stereo partly drawn) [Example 93, 4-((5-methoxyadamantan-2-yl)amino)-2-(((S)-2,3,4,5-tetrahydro-3-methoxybenzo[b][1,4]oxazepin-7-yl)amino)pyrimidin-5-carboxamide], the half-maximal inhibitory concentration (IC50) on TYK2 kinase, at JAK1 kinase, at JAK2 kinase and on JAK3 kinase was under 10 nM in each case.
Consider `NC(=O)c1cnc(Nc2ccc3c(c2)NC[C@H](O)CO3)nc1NCCCO` [Example 51, 4-((3-hydroxypropyl)amino)-2-(((S)-2,3,4,5-tetrahydro-3-hydroxybenzo[b][1,4]oxazepin-7-yl)amino)pyrimidin-5-carboxamide], for which the IC50 at TYK2 kinase was under 10 nM; against JAK1 kinase it was 10 to 100 nM; on JAK2 kinase it was 10 to 100 nM; against JAK3 kinase, 10 to 100 nM.
Turning to `COC12CC3CC(C1)C(Nc1nc(Nc4ccc5c(c4)NC[C@H](O)CO5)ncc1C(N)=O)C(C3)C2` (stereo partly drawn) [Example 46, 4-((5-methoxyadamantan-2-yl)amino)-2-(((S)-2,3,4,5-tetrahydro-3-hydroxybenzo[b][1,4]oxazepin-7-yl)amino)pyrimidin-5-carboxamide], the IC50 at TYK2 kinase, against JAK1 kinase, against JAK2 kinase and at JAK3 kinase was under 10 nM throughout.
Take `C#CCNc1nc(Nc2ccc3c(c2)NC[C@H](O)CO3)ncc1C(N)=O` [Example 65, 4-(prop-2-yn-1-ylamino)-2-(((S)-2,3,4,5-tetrahydro-3-hydroxybenzo[b][1,4]oxazepin-7-yl)amino)pyrimidin-5-carboxamide]: the IC50 at TYK2 kinase is under 10 nM; at JAK1 kinase, under 10 nM; against JAK2 kinase, 10 to 100 nM; against JAK3 kinase it was 10 to 100 nM.
